One assay addresses δ-opioid receptor (Rattus norvegicus, UniProt P33533). Put plainly: Rat brain δ-opioid receptor binding assay ([3H]DPDPE).
The next assay addresses μ-opioid receptor (Rattus norvegicus, UniProt P33535). Put plainly: Rat brain μ-opioid receptor binding assay ([3H]DAMGO).
Setting [1] is: rat forebrain preparation, [3H]DPDPE, 25° C., read-out: δ-Opioid Receptor Binding (Ki nM).
Where [2] appears, read: rat forebrain preparation, [3H]DAMGO, 25° C., read-out: μ-Opioid Receptor Binding (Ki nM).

Like-named read-outs stand apart in the source and are kept apart here.

δ-opioid receptor, sequence (P33533 whole entry): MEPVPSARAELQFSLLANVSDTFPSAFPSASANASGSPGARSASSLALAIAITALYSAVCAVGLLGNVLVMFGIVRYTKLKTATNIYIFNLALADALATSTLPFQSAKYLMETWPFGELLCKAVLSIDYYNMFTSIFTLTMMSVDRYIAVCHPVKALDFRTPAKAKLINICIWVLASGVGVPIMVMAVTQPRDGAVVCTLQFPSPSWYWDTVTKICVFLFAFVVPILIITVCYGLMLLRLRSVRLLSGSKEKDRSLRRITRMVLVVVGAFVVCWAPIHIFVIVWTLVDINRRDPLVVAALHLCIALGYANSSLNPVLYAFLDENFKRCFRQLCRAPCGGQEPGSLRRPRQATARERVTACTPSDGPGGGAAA
μ-opioid receptor, sequence (P33535 whole entry): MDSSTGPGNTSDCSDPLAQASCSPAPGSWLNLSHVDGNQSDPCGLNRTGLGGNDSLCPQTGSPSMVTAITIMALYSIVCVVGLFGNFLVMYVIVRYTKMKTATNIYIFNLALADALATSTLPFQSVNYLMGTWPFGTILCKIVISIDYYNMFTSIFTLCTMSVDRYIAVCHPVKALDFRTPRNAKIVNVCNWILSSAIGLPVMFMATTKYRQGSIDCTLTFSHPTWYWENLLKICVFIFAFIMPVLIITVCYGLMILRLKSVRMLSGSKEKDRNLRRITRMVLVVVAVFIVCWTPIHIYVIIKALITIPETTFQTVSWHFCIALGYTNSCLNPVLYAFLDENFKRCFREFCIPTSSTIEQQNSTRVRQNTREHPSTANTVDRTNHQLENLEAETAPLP

Consider `COCCN1CCN(C(=Nc2ccccc2Cl)c2ccc(C(=O)OC)cc2)CC1` [Compound 45, 4-[[(2-chlorophenyl)imino][4-(2-methoxyethyl)-1-piperazinyl]methyl]-benzoic acid methyl ester], for which the Ki at δ-opioid receptor (setting [1]) is 299 nM; on μ-opioid receptor (setting [2]) it was above 10000 nM.

Regarding `CCN(CC)C(=O)c1ccc(C(=Nc2ccccc2Cl)N2CCCN(CCc3ccccc3)CC2)cc1` [Compound 57, 4-[[(2-chlorophenyl)imino][hexahydro-4-(2-phenylethyl)-1H-1,4-diazepin-1-yl]methyl]-N,N-diethyl-benzamide], the Ki was 29.6 nM at δ-opioid receptor and 618 nM on μ-opioid receptor.

For the compound `COC(=O)c1ccc(C(=Nc2ccccc2Cl)N2CCN(CCc3ccccc3)CC2)cc1` [Compound 40, 4-[[(2-chlorophenyl)imino][4-(2-phenylethyl)-1-piperazinyl]methyl]-benzoic acid methyl ester], the Ki at δ-opioid receptor (setting [1]) and at μ-opioid receptor (setting [2]) was above 10000 nM each time.

As to `CCN(CC)C(=O)c1ccc(C(=Nc2ccccc2C(F)(F)F)N2CCN(CCc3ccccc3)CC2)cc1` [Compound 24, N,N-diethyl-4-[[4-(2-phenylethyl)-1-piperazinyl][[2-(trifluoromethyl)phenyl]imino]methyl]-benzamide], the Ki at δ-opioid receptor was 545 nM; on μ-opioid receptor, 1000 nM.

`C=CCN1CCN(C(=Nc2ccccc2Cl)c2cccc(C(=O)OC)c2)CC1` [Compound 54, 3-[[(2-chlorophenyl)imino][4-(2-propenyl)-1-piperazinyl]methyl]-benzoic acid methyl ester]: the Ki at δ-opioid receptor (setting [1]) is 2150 nM; at μ-opioid receptor (setting [2]), 1610 nM.

Consider `C=CCN1CCN(C(=Nc2ccccc2)c2ccc(C(=O)N(CC)CC)cc2)CC1` [Compound 15, N,N-diethyl-4-[(phenylimino)[4-(2-propenyl)-1-piperazinyl]methyl]-benzamide], for which the Ki on δ-opioid receptor was 859 nM; at μ-opioid receptor, above 10000 nM.

With `C=CCN1CCN(C(=Nc2ccccc2Cl)c2cccc(C(=O)N(CC)CC)c2)CC1` [Compound 52, 3-[[(2-chlorophenyl)imino][4-(2-propenyl)-1-piperazinyl]methyl]-N,N-diethyl-benzamide], the Ki at δ-opioid receptor was 487 nM; at μ-opioid receptor it was 600 nM.

As to `COC(=O)c1ccc(C(=Nc2ccccc2)N2CCCN(CCc3ccccc3)CC2)cc1` [Compound 58, 4-[[hexahydro-4-(2-phenylethyl)-1H-1,4-diazepin-1-yl](phenylimino)methyl]-benzoic acid methyl ester], the Ki worked out at 820 nM at δ-opioid receptor (setting [1]) and 232 nM on μ-opioid receptor (setting [2]).

As for “4-[(4-ethenyl-1-piperazinyl)(phenylimino)methyl]-benzoic acid methyl ester [Compound 36]”, the Ki was 954 nM on δ-opioid receptor (setting [1]) and above 10000 nM at μ-opioid receptor (setting [2]).

Regarding `C=CCN1C[C@H](C)N(/C(=N/c2ccccc2)c2ccc(C(=O)OC)cc2)C[C@H]1C` [Compound 51, 4-[(E)-[(2S,5R)-2,5-dimethyl-4-(2-propenyl)piperazinyl](phenylimino)methyl]-benzoic acid methyl ester], the results for the Ki on δ-opioid receptor (setting [1]) and on μ-opioid receptor (setting [2]) were 405 nM and above 10000 nM, respectively.

With `COC(=O)c1ccc(C(=Nc2ccccc2Cl)N2CCN(c3ccccc3)CC2)cc1` [Compound 35, 4-[[(2-chlorophenyl)imino](4-phenyl-1-piperazinyl)methyl]-benzoic acid methyl ester], the Ki was 7640 nM at δ-opioid receptor (setting [1]) and above 10000 nM at μ-opioid receptor (setting [2]).

As to `COC(=O)c1ccc(C(=Nc2ccc(Cl)cc2)N2CCN(Cc3ccccc3)CC2)cc1` [Compound 38, 4-[[(4-chlorophenyl)imino][4-(phenylmethyl)-1-piperazinyl]methyl]-benzoic acid methyl ester], the results for the Ki on δ-opioid receptor (setting [1]) and on μ-opioid receptor (setting [2]) were 246 nM and above 10000 nM, respectively.

Take `COC(=O)c1ccc(C(=Nc2ccccc2)N2CCN(Cc3ccccc3)CC2)cc1` [Compound 37, 4-[(phenylimino)[4-(phenylmethyl)-1-piperazinyl]methyl]-benzoic acid methyl ester]: the Ki is 1690 nM on δ-opioid receptor (setting [1]) and above 10000 nM at μ-opioid receptor (setting [2]).

For the compound `CCN(CC)C(=O)c1ccc(C(=Nc2ccccc2)N2CCN(CCc3cccs3)CC2)cc1` [Compound 22, N,N-diethyl-4-[(phenylimino)[4-[2-(2-thienyl)ethyl]-1-piperazinyl]methyl]-benzamide], the Ki at δ-opioid receptor is 764 nM; at μ-opioid receptor, above 10000 nM.

For the compound “4-[[(2-chlorophenyl)imino](4-propyl-1-piperazinyl)methyl]-N,N-diethyl-benzamide [Compound 18]”, the Ki was 157 nM at δ-opioid receptor (setting [1]) and above 10000 nM at μ-opioid receptor (setting [2]).

Turning to `CCN(CC)C(=O)c1ccc(C(=Nc2ccccc2)N2CCN(Cc3ccccc3)CC2)cc1` [Compound 17, N,N-diethyl-4-[(phenylimino)[4-(phenylmethyl)-1-piperazinyl]methyl]-benzamide], the Ki is 212 nM on δ-opioid receptor and above 10000 nM at μ-opioid receptor.

Turning to “3-[(phenylimino)[4-(2-propenyl)-1-piperazinyl]methyl]-benzoic acid methyl ester [Compound 55]”, the Ki on δ-opioid receptor (setting [1]) is 1170 nM; at μ-opioid receptor (setting [2]) it was above 10000 nM.

Regarding `CCN(CC)C(=O)c1ccc(C(=Nc2ccccc2Cl)N2CCN(CCc3ccccc3)CC2)cc1` [Compound 25, 4-[[(2-chlorophenyl)imino][4-(2-phenylethyl)-1-piperazinyl]methyl]-N,N-diethyl-benzamide], the Ki on δ-opioid receptor and on μ-opioid receptor was above 10000 nM each time.

For `CCN(CC)C(=O)c1ccc(C(=Nc2ccccc2C(F)(F)F)N2CCN(Cc3ccccc3)CC2)cc1` [Compound 23, N,N-diethyl-4-[[4-(phenylmethyl)-1-piperazinyl][[2-(trifluoromethyl)phenyl]imino]methyl]-benzamide], the Ki was found to be 1.22 nM on δ-opioid receptor and 1200 nM at μ-opioid receptor.

On to `CCN(CC)C(=O)c1ccc(C(=Nc2ccc(Cl)cc2)N2CCN(Cc3ccccc3)CC2)cc1` [Compound 28, 4-[[(4-chlorophenyl)imino][4-(phenylmethyl)-1-piperazinyl]methyl]-N,N-diethyl-benzamide], for which the Ki at δ-opioid receptor is 142 nM; at μ-opioid receptor, above 10000 nM.

Turning to `CCN(CC)C(=O)c1ccc(C(=Nc2ccccc2C(F)(F)F)N2CCN(CCOC)CC2)cc1` [Compound 26, N,N-diethyl-4-[[4-(2-methoxyethyl)-1-piperazinyl][[2-(trifluoromethyl)phenyl]imino]methyl]-benzamide], the Ki worked out at 22.9 nM at δ-opioid receptor and 2960 nM on μ-opioid receptor.

In the case of `COCCN1CCN(C(=Nc2ccccc2C(F)(F)F)c2ccc(C(=O)OC)cc2)CC1` [Compound 44, 4-[[4-(2-methoxyethyl)-1-piperazinyl][[2-(trifluoromethyl)phenyl]imino]methyl]-benzoic acid methyl ester], the Ki on δ-opioid receptor (setting [1]) stood at 82.6 nM; at μ-opioid receptor (setting [2]) it was 9150 nM.

On to `COC(=O)c1ccc(C(=Nc2ccccc2C(F)(F)F)N2CCN(CCc3ccccc3)CC2)cc1` [Compound 41, 4-[[4-(2-phenylethyl)-1-piperazinyl][[2-(trifluoromethyl)phenyl]imino]methyl]-benzoic acid methyl ester], for which the Ki on δ-opioid receptor (setting [1]) and on μ-opioid receptor (setting [2]) was above 10000 nM in each case.

For the compound `COC(=O)c1ccc(C(=Nc2ccccc2Cl)N2CCCN(CCc3ccccc3)CC2)cc1` [Compound 59, 4-[[(2-chlorophenyl)imino][hexahydro-4-(2-phenylethyl)-1H-1,4-diazepin-1-yl]methyl]-benzoic acid methyl ester], the values for the Ki on δ-opioid receptor (setting [1]) and on μ-opioid receptor (setting [2]) were 101 nM and 197 nM, respectively.

Regarding `CCN1CCN(C(=Nc2ccccc2F)c2ccc(C(=O)OC)cc2)CC1` [Compound 33, 4-[(4-ethyl-1-piperazinyl)[(3-fluorophenyl)imino]methyl]-benzoic acid methyl ester], the Ki was 230 nM at δ-opioid receptor (setting [1]) and above 10000 nM on μ-opioid receptor (setting [2]).

As for `C=CCN1CCN(C(=Nc2ccccc2)c2cccc(C(=O)N(CC)CC)c2)CC1` [Compound 53, N,N-diethyl-3-[(phenylimino)[4-(2-propenyl)-1-piperazinyl]methyl]-benzamide], the Ki at δ-opioid receptor (setting [1]) is 7030 nM; on μ-opioid receptor (setting [2]), above 10000 nM.

On δ-opioid receptor, `CCN(CC)C(=O)c1ccc(C(=Nc2ccccc2)N2CCCN(CCc3ccccc3)CC2)cc1` [Compound 56, N,N-diethyl-4-[[hexahydro-4-(2-phenylethyl)-1H-1,4-diazepin-1-yl](phenylimino)methyl]-benzamide] gave an inhibition constant Ki of 396 nM.

As to `COC(=O)c1ccc(C(=Nc2ccccc2Cl)N2CCN(CCc3cccs3)CC2)cc1` [Compound 43, 4-[[(2-chlorophenyl)imino][4-[2-(2-thienyl)ethyl]-1-piperazinyl]methyl]-benzoic acid methyl ester], the Ki at δ-opioid receptor (setting [1]) and at μ-opioid receptor (setting [2]) was above 10000 nM in each case.

Consider `COC(=O)c1ccc(C(=Nc2ccccc2Cl)N2CCN(Cc3ccccc3)CC2)cc1` [Compound 39, 4-[[(2-chlorophenyl)imino][4-(phenylmethyl)-1-piperazinyl]methyl]-benzoic acid methyl ester], for which the Ki was 2010 nM at δ-opioid receptor (setting [1]) and above 10000 nM at μ-opioid receptor (setting [2]).

Turning to `COC(=O)c1ccc(C(=Nc2ccccc2)N2CCN(CCc3cccs3)CC2)cc1` [Compound 42, 4-[(phenylimino)[4-[2-(2-thienyl)ethyl]-1-piperazinyl]methyl]-benzoic acid methyl ester], the Ki on δ-opioid receptor (setting [1]) and on μ-opioid receptor (setting [2]) was above 10000 nM throughout.

Regarding `CCN(CC)C(=O)c1ccc(C(=Nc2ccccc2Cl)N2CCN(CCOC)CC2)cc1` [Compound 27, 4-[[(2-chlorophenyl)imino][4-(2-methoxyethyl)-1-piperazinyl]methyl]-N,N-diethyl-benzamide], the Ki on δ-opioid receptor was 53.5 nM; on μ-opioid receptor, above 10000 nM.

Source of the values: patent US6887876B2, “Benzamidine derivatives” (Ortho-McNeil Pharmaceutical, Inc., priority 2000, dated 2005).
